Source: patent publication US20150376235A1, “Peptides for the Treatment of Immune Reconstitution Inflammatory Syndrome (IRIS) and Related Diseases” (priority 2014, published 2015)
Non-standard residues stand in square brackets, D forms with d. No end group written: not given here.

Tests used:
[1] = biological target: CCR5 (Homo sapiens, UniProt P51681); details: 30 min pretreatment; human MIP-1β 50 ng/mL, 90 min; cited from earlier work
[2] = Pharmacokinetic study following intravenous and oral administration, LC-MS/MS of plasma; type: in vivo, male Sprague Dawley rat
Description: A pharmacokinetic study of all-D [TTNYT] (RAP-103) (SEQ ID NO:2) following intravenous and oral administration was conducted at a target dose level of 1 mg/kg in the male Sprague Dawley rat. The concentration of RAP-103 in each plasma and brain sample was measured using a suitable LC-MS/MS assay. The assay used was a research grade assay (RGA-1) which was established by assessing the accuracy, precision and the linearity of the method. Plasma concentrations generated were used to evaluate the pharmacokinetic parameters of all-D-TTNYT (RAP-103).
The dose formulation was administered intravenously to multiple animals as a slow bolus over ca 30 s via the tail vein and to a different group of animals orally via gastric gavage at a target dose volume of 1 mL/kg, to achieve a target dose level of 1 mg/kg. The dose volume administered was calculated according to the bodyweight of the animal on the day of dosing. The weight of administered dose was recorded. […] Results expressed as ng/mL

[3] = tested on: inflammatory cytokines, chemokines, and receptors; details: Rat; oral gavage 0.05-1 mg/kg, 7 days; cited from earlier work
[4] = tested on: inflammatory cytokines, chemokines, and receptors; details: Rat; oral gavage 0.05-1 mg/kg, 7 days
Excerpt: The specific experimental details are provided in Padi, 2012.

[5] = tested on: rats with partial ligation of the sciatic nerve; details: cited from earlier work
[6] = biological target: CCR2 (Homo sapiens, UniProt P41597); details: 30 min pretreatment; human MCP-1 50 ng/mL, 90 min; cited from earlier work
Sequence of CCR2 (P41597 whole entry): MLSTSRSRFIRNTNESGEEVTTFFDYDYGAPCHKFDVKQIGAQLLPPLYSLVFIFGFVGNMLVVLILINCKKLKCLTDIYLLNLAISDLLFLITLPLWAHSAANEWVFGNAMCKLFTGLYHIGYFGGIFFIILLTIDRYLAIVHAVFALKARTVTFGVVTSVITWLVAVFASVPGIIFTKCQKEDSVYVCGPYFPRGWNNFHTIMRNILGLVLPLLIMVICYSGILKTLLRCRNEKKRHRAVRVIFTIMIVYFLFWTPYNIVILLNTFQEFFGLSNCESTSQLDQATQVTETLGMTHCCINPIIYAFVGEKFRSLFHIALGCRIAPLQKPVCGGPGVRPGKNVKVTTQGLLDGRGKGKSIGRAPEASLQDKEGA

[7] = tested on: inflammatory cytokines; details: Hu; cited from earlier work
[8] = biological target: T1, CCR2 (MCP-1) (Homo sapiens, UniProt P41597); assay: CCR2 (MCP-1) elicited chemotaxis of human monocytes, all-D-pentapeptides (FIG. 4); type: cell-based; details: 20 pM peptide 30 minutes; MCP-1 0.6 nM, 2 hours
T1 construct: Purified human monocytes were treated with 20 pM of All-D-pentapeptides for 30 minutes; endogenous in cells; host or cells: purified human monocytes
T1 sequence (P41597 whole entry): as above
Description: Purified human monocytes were treated with 20 pM of All-D-pentapeptides for 30 minutes prior to chemotaxis against human MCP-1 (0.6 nM) for 2 hours. […] A representative experiment is shown comprising triplicate determinations and is presented as relative fluorescence units, Mean±SEM.

[9] = biological target: T2, MCP-1/CCR2 (Homo sapiens, UniProt P41597); assay: MCP-1/CCR2 elicited β-integrin-mediated adhesion of human monocytes to human fibronectin (FIG. 5); type: cell-based; details: 10 minutes pretreatment
T2 construct: endogenous in cells; host or cells: human monocytes
T2 sequence (P41597 whole entry): as above
Description: The results are of interest as approved treatments for MS include the immunosupressive monoclonal antibody therapy “Tysabri”, which blocks T cell binding to cellular integrins, and thereby infiltration of inflammatory cells into brains of MS patients.
All-D-(IDNYT) Inhibition of Human Monocyte and THP-1 Cell β-Integrin-Mediated Adhesion to hu-Fibronectin
Human monocytes were treated with the indicated doses of all-D-(IDNYT) for 10 minutes prior to adherence to the β-integrin human fibronectin. Data is the average of two separate experiments, conducted with triplicate determinations. Data are presented as Mean±SEM of the normalized adherence response from two experiments. The IC50 for inhibition of MCP-1 stimulated adherence was generated using a nonlinear inhibition curve fit in GraphPad Prism Version 5.0.

[10] = biological target: T3, CCL2 (MCP-1) (Homo sapiens, UniProt P41597); assay: Blocking CCL2 (MCP-1) chemotaxis at low concentration (FIG. 3); type: cell-based; details: compounds at 10^−14 M
T3 construct: endogenous in cells; host or cells: human monocytes
T3 sequence (P41597 1-360 isoform P41597-2): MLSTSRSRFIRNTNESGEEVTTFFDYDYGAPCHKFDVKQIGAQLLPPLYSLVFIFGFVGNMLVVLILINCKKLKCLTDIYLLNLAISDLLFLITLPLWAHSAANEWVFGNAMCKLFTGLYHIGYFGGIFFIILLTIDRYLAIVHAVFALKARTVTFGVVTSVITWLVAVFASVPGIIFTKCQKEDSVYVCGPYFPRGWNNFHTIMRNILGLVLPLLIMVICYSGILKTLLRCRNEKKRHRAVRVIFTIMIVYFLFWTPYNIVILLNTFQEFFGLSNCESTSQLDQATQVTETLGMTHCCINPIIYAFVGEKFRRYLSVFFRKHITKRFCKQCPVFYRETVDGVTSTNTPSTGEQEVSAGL
Excerpt: FIG. 3 illustrates the effects of several all-D amino acid peptides in blocking CCL2 (MCP-1) chemotaxis at low concentration. The amino acid sequences of these peptides are: SSTYR (SEQ ID NO:3), TTSYT (SEQ ID NO:4) and NTSYR (SEQ ID NO:7)
In order to show the generalizability of the all-D-amino acid modifications we synthesized additional examples and tested them for antagonism of chemokines receptors implicated in the subject diseases, FIG. 3
Additional All-D-(Pepntapeptides) from V2 Region Block CCR5/CCR2 Human Monocyte Chemotaxis
In FIG. 3, the effects of RAPs in blocking CCL2 (MCP-1) chemotaxis was illustrated.

[11] = biological target: TLR4 (human, UniProt O00206 24-839); assay: cell-based or functional assay
Sequence of TLR4 (O00206 24-839): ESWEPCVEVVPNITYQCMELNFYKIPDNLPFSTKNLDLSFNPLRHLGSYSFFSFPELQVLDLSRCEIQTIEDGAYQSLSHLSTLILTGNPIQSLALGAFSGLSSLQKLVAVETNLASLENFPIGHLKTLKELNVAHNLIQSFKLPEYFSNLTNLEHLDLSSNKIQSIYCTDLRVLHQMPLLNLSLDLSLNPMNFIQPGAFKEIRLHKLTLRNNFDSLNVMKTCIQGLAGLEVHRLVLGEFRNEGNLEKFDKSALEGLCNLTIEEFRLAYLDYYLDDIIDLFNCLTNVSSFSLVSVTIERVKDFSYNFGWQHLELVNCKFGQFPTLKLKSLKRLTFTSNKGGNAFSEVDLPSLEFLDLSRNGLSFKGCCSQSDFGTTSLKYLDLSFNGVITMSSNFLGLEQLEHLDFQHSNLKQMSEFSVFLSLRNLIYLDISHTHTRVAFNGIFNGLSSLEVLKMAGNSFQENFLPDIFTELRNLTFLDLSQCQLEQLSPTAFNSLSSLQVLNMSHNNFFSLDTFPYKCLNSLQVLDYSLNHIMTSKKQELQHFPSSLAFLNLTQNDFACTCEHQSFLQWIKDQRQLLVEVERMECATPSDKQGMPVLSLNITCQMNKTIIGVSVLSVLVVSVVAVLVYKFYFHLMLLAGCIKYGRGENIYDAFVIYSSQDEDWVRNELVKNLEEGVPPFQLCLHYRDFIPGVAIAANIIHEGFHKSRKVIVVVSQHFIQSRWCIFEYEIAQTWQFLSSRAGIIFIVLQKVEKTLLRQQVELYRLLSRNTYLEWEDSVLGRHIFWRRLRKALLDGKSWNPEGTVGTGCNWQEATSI

Sequence of CCR5 (P51681 whole entry): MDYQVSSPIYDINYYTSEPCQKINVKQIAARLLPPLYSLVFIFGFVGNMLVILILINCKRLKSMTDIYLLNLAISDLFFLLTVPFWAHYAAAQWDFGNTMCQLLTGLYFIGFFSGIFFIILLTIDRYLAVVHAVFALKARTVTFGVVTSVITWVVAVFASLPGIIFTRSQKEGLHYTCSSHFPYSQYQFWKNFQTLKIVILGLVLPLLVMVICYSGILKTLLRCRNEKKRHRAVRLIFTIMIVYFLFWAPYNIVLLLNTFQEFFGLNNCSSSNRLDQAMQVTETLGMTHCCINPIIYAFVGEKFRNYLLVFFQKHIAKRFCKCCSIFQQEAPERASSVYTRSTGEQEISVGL

Molecule: C[C@H](O)[C@@H](N)C(=O)N[C@@H](C(=O)N[C@H](CC(N)=O)C(=O)N[C@H](Cc1ccc(O)cc1)C(=O)N[C@@H](C(=O)O)[C@H](C)O)[C@H](C)O [RAP-103, All-D-TTNYT]
- blocking of MIP-1β-elicited chemotaxis [1]: potently blocking
- time of peak levels in plasma ([2]; 1 mg/kg, male rat): 10 to 15 min
- tolerability of dose administrations ([2]; intravenous and oral, 1 mg/kg, male rat): well tolerated
- level at 0.25 h ([2]; male, Sprague-Dawley, rat, plasma, po, 1 mg/kg, oral 1 mg/kg, 0.25 h, individual animals 004M, 005M, 006M, read-out: plasma concentration): 6.42 ng/mL
- level at 0.5 h ([2]; male, Sprague-Dawley, rat, plasma, po, 1 mg/kg, oral 1 mg/kg, 0.5 h, individual animals 004M, 005M, 006M, read-out: plasma concentration): 10.2 ng/mL
- level at 2 h ([2]; male, Sprague-Dawley, rat, plasma, po, 1 mg/kg, oral 1 mg/kg, 2 h, individual animals 004M, 005M, 006M, read-out: plasma concentration): 12 ng/mL
- level at 4 h ([2]; male, Sprague-Dawley, rat, plasma, po, 1 mg/kg, oral 1 mg/kg, 4 h, individual animals 004M, 005M, 006M, read-out: plasma concentration): 9.09 ng/mL
- level at 8 h ([2]; male, Sprague-Dawley, rat, plasma, po, 1 mg/kg, oral 1 mg/kg, 8 h, individual animals 004M, 005M, 006M, read-out: plasma concentration): 6.67 ng/mL
- plasma concentration ([2]; oral 1 mg/kg, male rat, 0.083 h, individual animals 004M, 005M, 006M): <LLOQ
- plasma concentration ([2]; oral 1 mg/kg, male rat, 0.25 h, individual animals 004M, 005M, 006M, 1 mg/kg): <LLOQ
- plasma concentration ([2]; oral 1 mg/kg, male rat, 1 h, individual animals 004M, 005M, 006M): <LLOQ
- plasma concentration ([2]; oral 1 mg/kg, male rat, 2 h, individual animals 004M, 005M, 006M, 1 mg/kg): <LLOQ
- plasma concentration ([2]; oral 1 mg/kg, male rat, 4 h, individual animals 004M, 005M, 006M, 1 mg/kg): <LLOQ
- plasma concentration ([2]; oral 1 mg/kg, male rat, 8 h, individual animals 004M, 005M, 006M, 1 mg/kg): <LLOQ
- plasma concentration ([2]; oral 1 mg/kg, male rat, 12 h, individual animals 004M, 005M, 006M): <LLOQ
- IL-1β change [3]: decrease
- IL-6 change [3]: decrease
- CCL2 change [4]: decrease
- CCL3 change [4]: decrease
- CCR2 change [4]: decrease
- CCR5 change [4]: decrease
- MCP-1 change [4]: decrease
- MIP-1α change [4]: decrease
- TNFα change [4]: decrease
- already established hypersensitivity ([5]; 0.2-1 mg/kg, days 8 to 12): reverses
- development of thermal hyperalgesia ([5]; oral 0.05-1 mg/kg for 7 days): inhibits the development
- mechanical allodynia ([5]; oral 0.05-1 mg/kg for 7 days): fully prevents
- monocyte infiltration ([5]; peripheral nerve injury): reduce
- spinal microglial activation ([5]; peripheral nerve injury): reduce
- blocking of MCP-1-elicited chemotaxis [6]: potently blocking

Molecule: D-ala1-peptide T-amide [RAP-101]
- IL-1 change [7]: decrease
- IL-6 change [7]: decrease
- IL-8 change [7]: decrease
- TNFα change [7]: decrease

Molecule: ETWYS ([dE][dT][dW][dY][dS])
- inhibition of CCR2 (MCP-1) elicited chemotaxis [8]: potently block

Molecule: IDNYT ([dI][dD][dN][dY][dT])
- inhibition of CCR2 (MCP-1) elicited chemotaxis [8]: potently block
- blocking of MCP-1 elicited adhesion to human fibronectin [9]: potently blocking

Molecule: NTRYR
- inhibition of CCR2 (MCP-1) elicited chemotaxis [8]: potently block

Molecule: NTSYG ([dN][dT][dS][dY]G; not fully specified (residue 5))
- inhibition of CCR2 (MCP-1) elicited chemotaxis [8]: potently block

Molecule: NTSYR ([dN][dT][dS][dY][dR])
- blocking CCL2 (MCP-1) chemotaxis [10]: retain potency

Molecule: SSTYR ([dS][dS][dT][dY][dR])
- blocking CCL2 (MCP-1) chemotaxis [10]: retain potency

Molecule: TTSYT ([dT][dT][dS][dY][dT])
- blocking CCL2 (MCP-1) chemotaxis [10]: retain potency

Molecule: [dT][dT][dN][dY][dT] [all-D[TTNYT] (RAP-103)]
- IC50 for inhibition of LPS-induced TNFα production in monocyte-derived iDC [11]: ~0.1 pM
